In patent publication US10517952B2, “Nucleophile-triggered degradable materials and methods of making and using the same” (GEORGIA TECH RESEARCH CORPORATION, priority 2014, dated 2019):

How the values were obtained:
[1] = Erosion of swollen hydrogels (BODIPY erosion probe, time-lapse photography); format: physicochemical; settings: poorly controlled BODIPY labeling protocol
From the text: Degradation behavior of PEG-OND hydrogels under swelling conditions was investigated by labeling 3% of the 4-PEG-SH thiols with a BODIPY fluorophore via maleimide coupling before gelation. Gels prepared from this material are expected to have slightly lower crosslink densities and to degrade sooner when compared to gels formed without the erosion probe (FIG. 19). However, the probe-labeled macromer allowed convenient monitoring and comparison of erosion behavior under conditions relevant for biological applications. An increase in absorbance (504 nm) of the swelling buffer was observed as pieces containing the labeled PEG-thiol components were detached from the gel by rDA fragmentation (FIG. 2). […] Using combinations of linkers, it was possible to produce hydrogels with release profiles tuned between those of gels prepared from a single linker (FIG. 2C).
The 3.76 wt % solution of BODIPY-labeled 4-PEG-SH prepared above was used to form hydrogels using a method identical to unlabeled gels. Briefly, BODIPY-labeled 4-PEG-SH was combined with DMSO stocks of multivalent ONDs at equimolar concentration of thiol and electrophile. […] The absorbance of the supernatant at 504 nm was measured immediately to obtain a baseline measurement (t=0 hours), and the samples were placed into a 37° C. incubator. The absorbance of the swelling supernatant was monitored periodically by removal of 1 mL of buffer into a cuvette and measuring absorbance of the sample at 504 nm. […] This process was repeated for each sample until gel degradation was complete and the absorbance at 504 nm stabilized (100% dye released). In order to estimate the fraction of dye released from the non-degradable gel formed with bi s-EONB 8, a mock endpoint sample consisting of BODIPY-labeled 4-PEG-SH diluted to 3.5 wt % was prepared, and the absorbance at 504 nm was measured. […] The absorbance values collected over the course of the experiment were divided by the absorbance value measured after gel disintegration to obtain fractional dye release versus time. […]
The time at which the glass bead reached the bottom of the tube was recorded. […]

[2] = Oscillatory rheology of PEG-OND hydrogels; format: physicochemical; settings: pH 7.2, 37° C., strain 1%, 1 rad/sec, after 2-3 hours
Method: Oscillatory rheology was used to assess the viscoelastic properties of selected PEG-OND hydrogels. […] The truncated cone was then brought in contact with the bis-EONB/4-PEG-SH mixture before setting of the gel by positioning the tool at the measuring position. The sample was inspected for spillovers and trimmed as required. A preliminary preshearing step consisting of 30 seconds at 0.1% strain and ω=0.01 rad/s was performed to ensure good contact with the gel sample. The elastic (storage) and viscous (loss) moduli, G′ and G″, respectively, were then measured as a function of time for a constant strain of 1% and an angular frequency of 1 rad/sec. The ability to store energy is described by G′, while the amount of energy dissipated is related with G″. It was observed that the sample experienced a rapid transformation from an initial state in which G′ was not much larger than G″ to a state in which G′ was clearly predominant, as shown in FIG. 5; this is consistent with gelation. The observed transformation happened in the first few minutes after preparation, even when the hydrogel continued to rigidify for up to 2-3 hours.
The linear regime of this sample was determined by performing an oscillatory strain sweep at 37° C. The frequency sweep shown in the main text was thus performed in the linear region.
[…] In both experiments, G′>>G″.

With `COC(=O)C1=C(C(=O)OC)C2(CNC(=O)CCCC(=O)NCC34OC(C(C(=O)OC)=C3C(=O)OC)C3OC34)OC1C1OC12` (centres unmarked) [Linker 8, Tetramethyl 1,1′-((glutaroylbis(azanediyl))bis(methylene))bis(3,8-dioxatricyclo[3.2.1.0^2,4]oct-6-ene-6,7-dicarboxylate)] the “Dye released from gel made with multiply-labeled 4-PEG-SH macromer” value [1] was “up to 50%” and the “Storage modulus G′ versus loss modulus G″” value [2] was “G″ was negligible in comparison with G′”.
